Measurements: ChEMBL document CHEMBL3867430, “Novel 3,4-seco bile acid diamides as selective anticancer proliferation and migration agents” (Eur J Med Chem, 2016)

Tests used:
[1] = Antiproliferative activity against human PC3M cells after 48 hrs by SRB assay; type: functional, cell-based; conditions: PC-3M
[2] = Antiproliferative activity against human ES2 cells after 48 hrs by SRB assay; type: functional, cell-based; conditions: ES-2, 48 h
[3] = Antiproliferative activity against human HT-29 cells after 48 hrs by SRB assay; type: functional, cell-based; conditions: HT-29, 48 h
[4] = Selectivity index, ratio of IC50 for HAF cells to IC50 for human PC3M cells; type: functional
[5] = Selectivity index, ratio of IC50 for HAF cells to IC50 for human HT-29 cells; type: functional
[6] = Antiproliferative activity against HAF cells after 48 hrs by SRB assay; type: cell-based; conditions: Homo sapiens
[7] = Selectivity index, ratio of IC50 for HAF cells to IC50 for human ES2 cells; type: functional

Row | Structure (SMILES) | IC50 [1] | IC50 [2] | IC50 [3] | Ratio IC50 [4] | Ratio IC50 [5] | IC50 [6] | Ratio IC50 [7]
1 | C=C(C)C1CC[C@H]2[C@@H]3CC[C@H]([C@H](C)CCC(=O)NC4CC4)[C@@]3(C)CC[C@@H]2[C@@]1(C)CCC(=O)NC1CC1 (some centres undefined) | 17 µM | > 80 µM | > 80 µM |  |  |  | 
2 | C=C(C)C1CC[C@H]2[C@@H]3CC[C@H]([C@H](C)CCC(=O)N4CCCC4)[C@@]3(C)CC[C@@H]2[C@@]1(C)CCC(=O)N1CCCC1 (some centres undefined) | 32.4 µM | 9.25 µM | 23.7 µM |  |  |  | 
3 | C=C(C)C1CC[C@H]2[C@@H]3CC[C@H]([C@H](C)CCC(=O)NCc4ccccc4)[C@@]3(C)CC[C@@H]2[C@@]1(C)CCC(=O)NCc1ccccc1 (some centres undefined) | 13.6 µM | > 80 µM | 13 µM | >3.7 | >3.9 | > 50 µM | 
4 | C=C(C)C1CC[C@H]2[C@@H]3CC[C@H]([C@H](C)CCC(=O)N4CCN(C)CC4)[C@@]3(C)CC[C@@H]2[C@@]1(C)CCC(=O)N1CCN(C)CC1 (some centres undefined) | 5.08 µM | 3.63 µM | 1.93 µM | 3 | 8 | 15.5 µM | 4.3
5 | C[C@H](CCC(=O)O)[C@H]1CC[C@H]2[C@@H]3C[C@H](O)[C@@H]4C[C@H](O)CC[C@]4(C)[C@H]3CC[C@]12C [HYODEOXYCHOLIC_ACID] | > 80 µM | > 80 µM | > 80 µM |  |  |  | 
6 | C=C(C)C1CC[C@H]2[C@@H]3CC[C@H]([C@H](C)CCC(=O)N4CCN(c5ccccc5)CC4)[C@@]3(C)CC[C@@H]2[C@@]1(C)CCC(=O)N1CCN(c2ccccc2)CC1 (some centres undefined) | > 80 µM | > 80 µM | > 80 µM |  |  |  | 
7 | C=C(C)C1CC[C@H]2[C@@H]3CC[C@H]([C@H](C)CCC(=O)O)[C@@]3(C)CC[C@@H]2[C@@]1(C)CCC(=O)O (some centres undefined) | > 80 µM | > 80 µM | > 80 µM |  |  |  | 
8 | C=C(C)C1CC[C@H]2[C@@H]3CC[C@H]([C@H](C)CCC(=O)OC)[C@@]3(C)CC[C@@H]2[C@@]1(C)CCC(=O)N1CCN(C)CC1 (some centres undefined) | 41.8 µM | 31.7 µM | 13.7 µM |  |  |  | 
9 | C=C(C)C1CC[C@H]2[C@@H]3CC[C@H]([C@H](C)CCC(=O)N4CCOCC4)[C@@]3(C)CC[C@@H]2[C@@]1(C)CCC(=O)N1CCOCC1 (some centres undefined) | 22.5 µM | 29.6 µM | 16.6 µM |  |  |  | 
10 | C#CCNC(=O)CC[C@@H](C)[C@H]1CC[C@H]2[C@@H]3CCC(C(=C)C)[C@](C)(CCC(=O)NCC#C)[C@H]3CC[C@]12C (some centres undefined) | 50.4 µM | 3.11 µM | 85.5 µM |  |  | 61.9 µM | 20
11 | C=C(C)C1CC[C@H]2[C@@H]3CC[C@H]([C@H](C)CCC(=O)N4CCN(C5CCCCC5)CC4)[C@@]3(C)CC[C@@H]2[C@@]1(C)CCC(=O)N1CCN(C2CCCCC2)CC1 (some centres undefined) | 12 µM | 17 µM | 3.17 µM |  |  |  | 
12 | C=C(C)C1CC[C@H]2[C@@H]3CC[C@H]([C@H](C)CCCN4CCN(C)CC4)[C@@]3(C)CC[C@@H]2[C@@]1(C)CCCN1CCN(C)CC1 (some centres undefined) | > 80 µM | > 80 µM | > 80 µM |  |  |  | 
13 | C=C(C)C1CC[C@H]2[C@@H]3CC[C@H]([C@H](C)CCC(=O)NC(C)C)[C@@]3(C)CC[C@@H]2[C@@]1(C)CCC(=O)NC(C)C (some centres undefined) | 7.41 µM | > 80 µM | > 80 µM | >6.7 |  | > 50 µM | 
14 | C=C(C)C1CC[C@H]2[C@@H]3CC[C@H]([C@H](C)CCC(=O)N4CCN(c5ccccc5F)CC4)[C@@]3(C)CC[C@@H]2[C@@]1(C)CCC(=O)N1CCN(c2ccccc2F)CC1 (some centres undefined) | > 80 µM | > 80 µM | > 80 µM |  |  |  | 
15 | C[C@H](CCC(=O)O)[C@H]1CC[C@H]2[C@@H]3CCC(C(C)(C)O)[C@](C)(CCC(=O)O)[C@H]3CC[C@]12C (some centres undefined) | > 80 µM | > 80 µM | > 80 µM |  |  |  | 
16 | C[C@H](CCC(=O)O)[C@H]1CC[C@H]2[C@@H]3CC[C@@H]4C[C@H](O)CC[C@]4(C)[C@H]3C[C@H](O)[C@]12C [DEOXYCHOLIC ACID] | > 80 µM | > 80 µM | > 80 µM |  |  |  | 
17 | C=C(C)C1CC[C@H]2[C@@H]3CC[C@H]([C@H](C)CCC(=O)N(CC)CC)[C@@]3(C)CC[C@@H]2[C@@]1(C)CCC(=O)N(CC)CC (some centres undefined) | 11.1 µM | 14.2 µM | 6.88 µM | 5.1 | 8.1 | 56.2 µM | 4
18 | C=C(C)C1CC[C@H]2[C@@H]3CC[C@H]([C@H](C)CCC(=O)O)[C@@]3(C)CC[C@@H]2[C@@]1(C)CCC(=O)N1CCN(C)CC1 (some centres undefined) | > 80 µM | 53.9 µM | > 80 µM |  |  |  | 
19 | CC(C)C1CC[C@H]2[C@@H]3CC[C@H]([C@H](C)CCC(=O)N4CCN(C)CC4)[C@@]3(C)CC[C@@H]2[C@@]1(C)CCC(=O)N1CCN(C)CC1 (some centres undefined) | 12.7 µM | 8.2 µM | 13.8 µM |  |  |  | 
20 | C=C(C)C1CC[C@H]2[C@@H]3CC[C@H]([C@H](C)CCC(=O)Nc4ccc(F)cc4)[C@@]3(C)CC[C@@H]2[C@@]1(C)CCC(=O)Nc1ccc(F)cc1 (some centres undefined) | > 80 µM | > 80 µM | > 80 µM |  |  |  | 
21 | C[C@H](CCC(=O)O)[C@H]1CC[C@H]2[C@@H]3[C@H](O)C[C@@H]4C[C@H](O)CC[C@]4(C)[C@H]3CC[C@]12C [CHENODIOL] | > 80 µM | > 80 µM | > 80 µM |  |  |  | 
22 | C=C(C)C1CC[C@H]2[C@@H]3CC[C@H]([C@H](C)CCC(=O)n4cccn4)[C@@]3(C)CC[C@@H]2[C@@]1(C)CCC(=O)n1cccn1 (some centres undefined) | > 80 µM | > 80 µM | > 80 µM |  |  |  | 
23 | C=C(C)C1CC[C@H]2[C@@H]3CC[C@H]([C@H](C)CCC(N)=O)[C@@]3(C)CC[C@@H]2[C@@]1(C)CCC(N)=O (some centres undefined) | 39.2 µM | 36.9 µM | 36.7 µM |  |  |  | 
24 | C=C(C)C1CC[C@H]2[C@@H]3CC[C@H]([C@H](C)CCC(=O)N4CCN(CC)CC4)[C@@]3(C)CC[C@@H]2[C@@]1(C)CCC(=O)N1CCN(CC)CC1 (some centres undefined) | 8.47 µM | 12.5 µM | 6.19 µM |  |  |  | 
25 | C=C(C)C1CC[C@H]2[C@@H]3CC[C@H]([C@H](C)CCC(=O)N4CCN(C(C)C)CC4)[C@@]3(C)CC[C@@H]2[C@@]1(C)CCC(=O)N1CCN(C(C)C)CC1 (some centres undefined) | 1.66 µM | 6.68 µM | 9.91 µM | 16.3 | 2.7 | 27 µM | 4
